In assay [1] the test system is KRas-mediated phosphorylation of ERK in H358 cells. In words: Inhibition of KRas-mediated phosphorylation of ERK (Cisbio HTRF pERK), H358 cells. In kind it is cell-based. To be noted: Homo sapiens, NCI-H358, HTRF pERK. A digest of the protocol: (§1)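 HTRF readout of phospho-ERK in cell lysates after 3 hrs of compound exposure. Dosing: 10 uM top, 3-fold steps, 10 doses, final DMSO 0.8%. Min control: 0.2 uM Trametinib. Lysis ran 40 mins at 4° C, and antibody detection 2 hrs at room temperature.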
In general terms: TR-FRET usually uses a lanthanide donor and a delayed reading to cut background.

The subject of assay [2] is KRas-mediated phosphorylation of ERK in HCT116 cells. Briefly: Inhibition of KRas-mediated phosphorylation of ERK (Cisbio HTRF pERK), HCT116 cells. In kind it is cell-based. To be noted: Homo sapiens, HCT-116, HTRF pERK. A digest of the protocol: (§2)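 Using 6,000 cells per well, compounds are applied for 3 hrs and cells then lysed at 4° C with shaking for 40 mins. Phospho-ERK is measured by HTRF after 2 hrs of lysate incubation with the d2/Cryptate antibody mixture.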

Assay [3] has as its system KRas-mediated phosphorylation of ERK in MKN1 cells. In words: Inhibition of KRas-mediated phosphorylation of ERK (Cisbio HTRF pERK), MKN1 cells. In kind it is cell-based. The note with it: Homo sapiens, MKN-1. An outline of the steps:
(§3)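 Overnight culture at 37° C./5% CO2 in RPMI containing 10% FBS, seeded 6,000 cells per well, preceded the assay. A covered 4-hour incubation at room temperature followed, then HTRF signal for phosphorylated ERK was measured.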

In assay [4] the test system is KRas-mediated phosphorylation of ERK in H460 cells. Briefly: Inhibition of KRas-mediated phosphorylation of ERK (Cisbio HTRF pERK), H460 cells. In kind it is cell-based. To be noted: Homo sapiens, NCI-H460, HTRF pERK. An outline of the steps:
as §1

For assay [5], the target named is T1, KRas^G12V (Homo sapiens, UniProt P01116, G12V).
T1 construct: Biotinylated KRas (corresponding to amino acids 1-169, produced at Accelegan Inc.); biotin (biotinylated); purchased Accelegan Inc
T1 sequence (P01116 1-169 isoform P01116-2 G12V): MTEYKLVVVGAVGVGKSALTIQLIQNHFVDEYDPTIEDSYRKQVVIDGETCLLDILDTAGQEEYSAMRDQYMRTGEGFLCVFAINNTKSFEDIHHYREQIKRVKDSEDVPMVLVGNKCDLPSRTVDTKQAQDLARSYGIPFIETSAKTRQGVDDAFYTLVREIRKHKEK
Briefly: KRas binding assay (TR-FRET tracer displacement), KRas G12V.

Assay [6] deals with T2, KRas^G12D (Homo sapiens, UniProt P01116, G12D).
T2 construct: Biotinylated KRas (corresponding to amino acids 1-169, produced at Accelegan Inc.); biotin (biotinylated); purchased Accelegan Inc
T2 sequence (P01116 1-169 isoform P01116-2 G12D): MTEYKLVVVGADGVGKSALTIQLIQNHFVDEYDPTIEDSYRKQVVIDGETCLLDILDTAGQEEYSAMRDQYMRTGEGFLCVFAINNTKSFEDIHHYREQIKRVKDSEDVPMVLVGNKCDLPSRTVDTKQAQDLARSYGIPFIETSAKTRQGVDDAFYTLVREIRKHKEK
In words: KRas binding assay (TR-FRET tracer displacement), KRas G12D.

Assay [7] has as its system KRas-mediated phosphorylation of ERK in H2009 cells. In words: Inhibition of KRas-mediated phosphorylation of ERK (Cisbio HTRF pERK), H2009 cells. In kind it is cell-based. The note with it: Homo sapiens, NCI-H2009. The method, then:
Inhibition of KRas Phosphorylation of ERK (HTRF) by Exemplary Compounds of Formula (I)
Cisbio HTRF Advanced PERK Assay Catalog #64AERPEH
1. To harvest cells from flask using 0.05% Trypsin/EDTA solution. Add 10 mL of media to stop trypsinizing. Pipette the cells into a conical bottom 50 mL centrifuge tube and centrifuge 5 min×1000 rpm.
2. Re-suspend the cell pellet in media, take a cell count, and then adjust the cell density using fresh media.
3. Seed 6,000 cells into cell culture plate with 50 μL media. […]
4. Incubate cell plate overnight in a 37° C., 5% CO2 incubator.
1. Use Tecan to complete the compound addition. Compounds start from 10 uM top, 3-fold dilution, and 10 doses. The final DMSO concentration is 0.8%. Dispensed 0.2 uM Trametinib as Min control.
2. Incubate cell plate for 3 hrs in the incubator.
Detection with Cisbio pERK HTRF Kit
1. Dilute 1 volume of 4× lysis buffer with 3 volumes of deionized water. Then, add 100× the blocking reagent. Keep lysis buffer on the ice.
2. At the end of the compound treatment, flick-off the media.
3. Add 35 μL of lysis buffer per well using a Multidrop Combi. Then place on a plate agitator shaking at 300 rpm at 4° C. for 40 mins.
4. Make up the HTRF antibody buffer. For each assay plate, mix 50 μL of d2-conjugate antibody with 950 μL of detection buffer. Similarly, mix 50 μL of Cryptate antibody with 950 μL of detection buffer. Then mix the two diluted antibodies together.
5. Dispense 3.4 μL the antibody buffer to wells of an empty assay plate. Seal the plate and centrifuge plate 30 sec×1000 rpm.
6. At the end of the 4° C. lysis, centrifuge the lysate plates 3 mins×1500 rpm.
7. Use the Bravo to transfer 13.6 μL of lysate from cell culture plate to assay plate. Then incubate assay plate for 2 hrs at room temperature.
8. At the end of incubation, read plate on the Envision after centrifuging plate 30 sec×1000 rpm.

Assay [8] deals with KRas-mediated phosphorylation of ERK in PSN1 cells. Briefly: Inhibition of KRas-mediated phosphorylation of ERK (Cisbio HTRF pERK), PSN1 cells. To be noted: Homo sapiens. In kind it is cell-based. An outline of the steps: as §3
The subject of assay [9] is KRas-mediated phosphorylation of ERK in A549 cells. In words: Inhibition of KRas-mediated phosphorylation of ERK (Cisbio HTRF pERK), A549 cells. The note with it: Homo sapiens, HTRF pERK. In kind it is cell-based. An outline of the steps: as §2
Assay [10] concerns KRas-mediated phosphorylation of ERK in H727 cells. In words: Inhibition of KRas-mediated phosphorylation of ERK (Cisbio HTRF pERK), H727 cells. In kind it is cell-based. The note with it: Homo sapiens, NCI-H727, H727 cells; HTRF pERK. An outline of the steps: as §1
Assay [11] deals with KRas-mediated phosphorylation of ERK in AsPC-1 cells. Briefly: Inhibition of KRas-mediated phosphorylation of ERK (Cisbio HTRF pERK), AsPC-1 cells. In kind it is cell-based. To be noted: Homo sapiens, ASPC1, AsPC-1 cells; HTRF pERK. A digest of the protocol: as §1
Assay [12] deals with T3, KRas^G12R (Homo sapiens, UniProt P01116, G12R).
T3 construct: Biotinylated KRas (corresponding to amino acids 1-169, produced at Accelegan Inc.); biotin (biotinylated); purchased Accelegan Inc
T3 sequence (P01116 1-169 isoform P01116-2 G12R): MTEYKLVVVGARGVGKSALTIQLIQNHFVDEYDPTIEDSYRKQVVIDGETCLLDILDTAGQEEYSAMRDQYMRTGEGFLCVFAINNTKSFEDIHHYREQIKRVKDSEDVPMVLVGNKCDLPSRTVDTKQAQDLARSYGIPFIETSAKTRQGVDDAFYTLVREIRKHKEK
Briefly: KRas binding assay (TR-FRET tracer displacement), KRas G12R.

Assay [13] has as its target T4, KRas^G12C (Homo sapiens, UniProt P01116, G12C).
T4 construct: Biotinylated KRas (corresponding to amino acids 1-169, produced at Accelegan Inc.); biotin (biotinylated); purchased Accelegan Inc
Briefly: KRas binding assay (TR-FRET tracer displacement), KRas G12C. The note with it: TR-FRET tracer displacement, KRas G12C.

The target of assay [14] is T5, KRas^G12S (Homo sapiens, UniProt P01116, G12S).
T5 construct: Biotinylated KRas (corresponding to amino acids 1-169, produced at Accelegan Inc.); biotin (biotinylated); purchased Accelegan Inc
T5 sequence (P01116 1-169 isoform P01116-2 G12S): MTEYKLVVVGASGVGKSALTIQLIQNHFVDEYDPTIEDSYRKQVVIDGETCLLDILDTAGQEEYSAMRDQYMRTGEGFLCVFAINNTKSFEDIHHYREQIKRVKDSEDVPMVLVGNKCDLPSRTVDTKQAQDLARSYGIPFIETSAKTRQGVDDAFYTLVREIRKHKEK
In words: KRas binding assay (TR-FRET tracer displacement), KRas G12S. The note with it: TR-FRET tracer displacement, KRas G12S.

The target in assay [15] is T6, KRas^WT (Homo sapiens, UniProt P01116).
T6 construct: Biotinylated KRas (corresponding to amino acids 1-169, produced at Accelegan Inc.); biotin (biotinylated); purchased Accelegan Inc
T6 sequence (P01116 1-169 isoform P01116-2): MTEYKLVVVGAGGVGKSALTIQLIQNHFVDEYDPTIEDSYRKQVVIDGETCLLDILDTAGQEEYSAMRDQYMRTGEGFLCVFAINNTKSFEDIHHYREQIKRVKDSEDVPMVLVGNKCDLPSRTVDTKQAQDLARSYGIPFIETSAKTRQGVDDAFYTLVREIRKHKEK
Briefly: KRas binding assay (TR-FRET tracer displacement), KRas WT. To be noted: TR-FRET tracer displacement, KRas WT.

Where only a bound is given, the exact number is not on record here.

T4 sequence (P01116 1-169 isoform P01116-2 G12C): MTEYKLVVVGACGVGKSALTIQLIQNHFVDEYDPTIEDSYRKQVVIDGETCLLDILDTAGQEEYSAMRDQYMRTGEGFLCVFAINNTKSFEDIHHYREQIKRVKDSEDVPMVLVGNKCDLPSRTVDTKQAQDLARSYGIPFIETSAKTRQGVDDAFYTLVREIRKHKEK

On to `CCc1c(F)ccc2cc(O)cc(-c3ncc4c(N5CCC[C@@](C)(O)C5)nc(OC[C@@]56CCCN5C/C(=C\F)C6)nc4c3F)c12` [Example 791, (R)-1-(7-(8-ethyl-7-fluoro-3-hydroxynaphthalen-1-yl)-8-fluoro-2-(((S,Z)-2-(fluoromethylene)tetrahydro-1H-pyrrolizin-7a(5H)-yl)methoxy)pyrido[4,3-d]pyrimidin-4-yl)-3-methylpiperidin-3-ol], for which the IC50 (as a rule, the concentration that inhibits the measured activity by half) is 1 nM in assay [1]; 2 nM in [2]; 0.1 nM in assay [3]; 1 nM in [4]; less than 2 nM in assay [5]; less than 2 nM in [6]. Besides, the IC50 is 1 nM in assay [7]; 80 nM in assay [8]; 1 nM in assay [9]; 2 nM in [10]; 1 nM in assay [11]; less than 2 nM in [12].
Consider `C[C@@H]1C[C@@H]1c1c(Cl)cc(O)cc1-c1ncc2c(N3CC4CCC(C3)N4)nc(OC[C@@]34CCCN3C/C(=C\F)C4)nc2c1F` [Example 806, 3-(4-(3,8-diazabicyclo[3.2.1]octan-3-yl)-8-fluoro-2-(((S,Z)-2-(fluoromethylene)tetrahydro-1H-pyrrolizin-7a(5H)-yl)methoxy)pyrido[4,3-d]pyrimidin-7-yl)-5-chloro-4-(cis-2-methylcyclopropyl)phenol], for which the IC50 was 43 nM in assay [1]; 129 nM in assay [2]; 19 nM in assay [3]; 3 nM in assay [13]; 107 nM in assay [4]; 4 nM in assay [5]. In addition, the IC50 in [6] is less than 2 nM; in assay [7], 29 nM; in [9], 139 nM; in [10], 364 nM; in [14], 2 nM; in [11] it was 2 nM. In [15], this compound had an IC50 of 4 nM.
In the case of `C/C=C1\CN2CCCC2(COc2nc(N3C[C@@H]4C[C@H](C3)[C@H](O)C4)c3cnc(-c4cc(O)cc5ccc(F)c(CC)c45)c(F)c3n2)C1` (stereo partly drawn) [Example 938, (1R,5R,6R)-3-(7-(8-ethyl-7-fluoro-3-hydroxynaphthalen-1-yl)-2-(((Z)-2-ethylidenetetrahydro-1H-pyrrolizin-7a(5H)-yl)methoxy)-8-fluoropyrido[4,3-d]pyrimidin-4-yl)-3-azabicyclo[3.2.1]octan-6-ol], the IC50 in assay [1] is 1 nM; in assay [2] it was 7 nM; in assay [3], 0.2 nM; in [13], less than 2 nM; in assay [4] it was 4 nM; in assay [5] it was less than 2 nM. The 50% inhibitory concentration (IC50) in [6] was less than 2 nM; in [7], 1 nM; in assay [9], 3 nM; in [10], 4 nM; in assay [14], less than 2 nM; in assay [11], 9 nM. Besides, in [15], the IC50 was less than 2 nM.
Take `C=C1CN2CCCC2(COc2nc(N3CCCC4(CCO4)C3)c3cnc(-c4cc(O)cc5ccc(F)c(CC)c45)c(F)c3n2)C1` (centres unmarked) [Example 941, 5-ethyl-6-fluoro-4-(8-fluoro-2-((2-methylenetetrahydro-1H-pyrrolizin-7a(5H)-yl)methoxy)-4-(1-oxa-6-azaspiro[3.5]nonan-6-yl)pyrido[4,3-d]pyrimidin-7-yl)naphthalen-2-ol]: the IC50 in assay [1] is 1 nM; in assay [2], 3 nM; in [3], 0.1 nM; in [13], less than 2 nM; in [4], 2 nM; in assay [5], less than 2 nM. Further, the IC50 is less than 2 nM in assay [6]; 1 nM in assay [7]; 2 nM in assay [9]; 2 nM in assay [10]; less than 2 nM in assay [14]; 1 nM in assay [11]. This compound also showed an IC50 in [15] of less than 2 nM.
`CCc1c(F)ccc2cc(O)cc(-c3ncc4c(N5C[C@@H]6C[C@H](C5)[C@H](O)C6)nc(OC[C@@]56CCCN5C/C(=C\F)C6)nc4c3F)c12` [Example 942, (1R,5R,6R)-3-(7-(8-ethyl-7-fluoro-3-hydroxynaphthalen-1-yl)-8-fluoro-2-(((S,Z)-2-(fluoromethylene)tetrahydro-1H-pyrrolizin-7a(5H)-yl)methoxy)pyrido[4,3-d]pyrimidin-4-yl)-3-azabicyclo[3.2.1]octan-6-ol]: the 50% inhibitory concentration (IC50) amounted to 0.4 nM in [1]; 1 nM in [2]; 1 nM in [4]; 1 nM in assay [7]; 1 nM in assay [9]; 1 nM in assay [10]. Inhibition in assay [11] was half-maximal at 2 nM (IC50).
As to `C[C@@H]1C[C@@H]1c1c(Cl)cc(O)cc1-c1ncc2c(N3CCC[C@@](C)(O)C3)nc(OC[C@@]34CCCN3C/C(=C\F)C4)nc2c1F` [Example 944, (R)-1-(7-(3-chloro-5-hydroxy-2-((1S,2R)-2-methylcyclopropyl)phenyl)-8-fluoro-2-(((S,Z)-2-(fluoromethylene)tetrahydro-1H-pyrrolizin-7a(5H)-yl)methoxy)pyrido[4,3-d]pyrimidin-4-yl)-3-methylpiperidin-3-ol], the IC50 was 1 nM in assay [1]; 6 nM in [2]; less than 2 nM in assay [13]; 3 nM in assay [4]; less than 2 nM in assay [5]; less than 2 nM in [6]. Moreover, the IC50 in [7] was 1 nM; in [9], 6 nM; in [10] it was 6 nM; in assay [14] it was less than 2 nM; in assay [11] it was 2 nM; in assay [15], less than 2 nM.
On to `C[C@@H]1C[C@@H]1c1c(Cl)cc(O)cc1-c1ncc2c(N3C[C@H]4CC[C@@H](C3)N4)nc(OC[C@@]34CCCN3C/C(=C\F)C4)nc2c1F` [Example 946, 3-(4-((1R,5S)-3,8-diazabicyclo[3.2.1]octan-3-yl)-8-fluoro-2-(((S,Z)-2-(fluoromethylene)tetrahydro-1H-pyrrolizin-7a(5H)-yl)methoxy)pyrido[4,3-d]pyrimidin-7-yl)-5-chloro-4-((1S,2R)-2-methylcyclopropyl)phenol], for which the IC50 in assay [1] came out at 212 nM; in assay [2], 628 nM; in assay [4] it was 494 nM; in [7] it was 229 nM; in assay [9], 984 nM; in assay [10] it was 847 nM. Besides, in assay [11], the half-maximal inhibitory concentration (IC50) came out at 8 nM.

(Values after patent publication US20260015350A1, “AZAQUINAZOLINE PAN-KRAS INHIBITORS” (Mirati Therapeutics, Inc., priority 2022, published 2026).)
